Experimental data as given in patent US6355799B1, “Substituted benzene compounds, process for their preparation, and herbicidal and defoliant compositions containing them” (ISK Americas Incorporated, priority 1997, dated 2002).

How the values were obtained:
Format in all cases: in vivo
[1] = test system: field corn (Zea mays L., var. Dekalb 535, CORN); experiment: Post-emerge test, crop safety; conditions: post-emerge, 14 days after application, rating scale 0-100
Summary of the method: (§1)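 Herbicidal damage is scored 0 (none) to 100 (complete plant death) two weeks after a simulated field spray. Rates span 15–1000 g ai/ha, delivered in acetone at 187 l/ha. For post-emergence treatments, plants have 2–3 leaves and the spray carries 0.25% v/v non-ionic surfactant.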

[2] = test system: upland rice (Oryza sp., var. Tebonnet, RICE); experiment: Post-emerge test, crop safety; conditions: post-emerge, 14 days after application, rating scale 0-100
Summary of the method: as §1

[3] = test system: field corn (Zea mays L., var. Dekalb 535, CORN); experiment: Pre-emerge test, crop safety; conditions: rated 14 days after application, 0 = no damage, 100 = complete death
Summary of the method: as §1

[4] = test system: upland rice (Oryza sp., var. Tebonnet, RICE); experiment: Pre-emerge test, crop safety; conditions: rated 14 days after application, 0 = no damage, 100 = complete death
Summary of the method: as §1

[5] = test system: redroot pigweed (Amaranthus retroflexus, AMARE); experiment: Post-emerge test, greenhouse herbicide activity screening; conditions: post-emerge, 14 days after application, rating scale 0-100
Summary of the method: (§2)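 Compounds in acetone were track-sprayed at 15–1000 g ai/ha: pre-emergence onto soil sown the previous day, then top-watered to incorporate and later bottom-watered; post-emergence onto 2–3 leaf plants with 0.25% v/v surfactant, bottom-watered only. Ratings on a 0–100 phytotoxicity scale were taken at day 14.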

[6] = test system: lambsquarters (Chenopodium album, CHEAL); experiment: as above; conditions: post-emerge, 14 days after application, rating scale 0-100
Summary of the method: as §2

[7] = test system: common ragweed (Ambrosia artemisizfolia L., AMBEL); experiment: as above; conditions: post-emerge, 14 days after application, rating scale 0-100
Summary of the method: as §2

[8] = test system: green foxtail (Setaria viridis, SETVI); experiment: as above; conditions: post-emerge, 14 days after application, rating scale 0-100
Summary of the method: as §2

[9] = test system: sicklepod (Cassia obtusifolia, CASOB); experiment: as above; conditions: post-emerge, 14 days after application, rating scale 0-100
Summary of the method: as §2

[10] = test system: ivyleaf morningglory (Ipomoea hederacea, IPOHE); experiment: as above; conditions: post-emerge, 14 days after application, rating scale 0-100
Summary of the method: as §2

[11] = test system: velvetleaf (Abutilon theophrasti, ABUTH); experiment: as above; conditions: post-emerge, 14 days after application, rating scale 0-100
Summary of the method: as §2

[12] = test system: large crabgrass (Digitaria sanguinalis, DIGSA); experiment: as above; conditions: post-emerge, 14 days after application, rating scale 0-100
Summary of the method: as §2

[13] = test system: johnsongrass (Sorghum halepense, SORHA); experiment: as above; conditions: post-emerge, 14 days after application, rating scale 0-100
Summary of the method: as §2

[14] = test system: barnyardgrass (Echinochloa crus-galli, ECHCG); experiment: as above; conditions: post-emerge, 14 days after application, rating scale 0-100
Summary of the method: as §2

[15] = test system: lambsquarters (Chenopodium album, CHEAL); experiment: Pre-emerge test, greenhouse herbicide activity screening; conditions: rated 14 days after application, 0 = no damage, 100 = complete death
Summary of the method: as §1

[16] = test system: green foxtail (Setaria viridis, SETVI); experiment: as above; conditions: rated 14 days after application, 0 = no damage, 100 = complete death
Summary of the method: as §1

[17] = test system: sicklepod (Cassia obtusifolia, CASOB); experiment: as above; conditions: rated 14 days after application, 0 = no damage, 100 = complete death
Summary of the method: as §1

[18] = test system: ivyleaf morningglory (Ipomoea hederacea, IPOHE); experiment: as above; conditions: rated 14 days after application, 0 = no damage, 100 = complete death
Summary of the method: as §1

[19] = test system: velvetleaf (Abutilon theophrasti, ABUTH); experiment: as above; conditions: rated 14 days after application, 0 = no damage, 100 = complete death
Summary of the method: as §1

[20] = test system: large crabgrass (Digitaria sanguinalis, DIGSA); experiment: as above; conditions: rated 14 days after application, 0 = no damage, 100 = complete death
Summary of the method: as §1

[21] = test system: johnsongrass (Sorghum halepense, SORHA); experiment: as above; conditions: rated 14 days after application, 0 = no damage, 100 = complete death
Summary of the method: as §1

[22] = test system: barnyardgrass (Echinochloa crus-galli, ECHCG); experiment: as above; conditions: rated 14 days after application, 0 = no damage, 100 = complete death
Summary of the method: as §1

[23] = test system: redroot pigweed (Amaranthus retroflexus, AMARE); experiment: as above; conditions: rated 14 days after application, 0 = no damage, 100 = complete death
Summary of the method: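 Rating: 0–100 visual injury, 14 DAA. Application: acetone, 187 l/ha, 15–1000 g ai/ha, flat-fan track sprayer with nozzle 40–45 cm above soil or canopy. Post-emerge runs used 0.25% v/v surfactant on 2–3 leaf plants.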

SMILES: COc1c(Cl)cc(F)c(-n2c(=O)cc(C(F)(F)F)n(C)c2=O)c1NC(=O)c1ccc(C(F)(F)F)cc1 [2-33]
- phytotoxicity rating CORN ([1]; 63 g ai/ha): 10
- phytotoxicity rating CORN ([1]; 250 g ai/ha): 40
- phytotoxicity rating RICE ([2]; 63 g ai/ha): 20
- phytotoxicity rating RICE ([2]; 250 g ai/ha): 60
- Pre-emerge phytotoxicity rating (0-100), crop damage, CORN ([3]; 63 g ai/ha): 70
- Pre-emerge phytotoxicity rating (0-100), crop damage, CORN ([3]; 250 g ai/ha): 90
- Pre-emerge phytotoxicity rating (0-100), crop damage, RICE ([4]; 63 g ai/ha): 70
- Pre-emerge phytotoxicity rating (0-100), crop damage, RICE ([4]; 250 g ai/ha): 80
- phytotoxicity rating AMARE ([5]; 63 g ai/ha): 90
- phytotoxicity rating AMARE ([5]; 250 g ai/ha): 95
- phytotoxicity rating CHEAL ([6]; 63 g ai/ha): 80
- phytotoxicity rating CHEAL ([6]; 250 g ai/ha): 95
- phytotoxicity rating AMBEL ([7]; 63 g ai/ha): 70
- phytotoxicity rating AMBEL ([7]; 250 g ai/ha): 95
- phytotoxicity rating SETVI ([8]; 63 g ai/ha): 50
- phytotoxicity rating SETVI ([8]; 250 g ai/ha): 40
- phytotoxicity rating CASOB ([9]; 63 g ai/ha): 70
- phytotoxicity rating CASOB ([9]; 250 g ai/ha): 80
- phytotoxicity rating IPOHE ([10]; 63 g ai/ha): 100
- phytotoxicity rating IPOHE ([10]; 250 g ai/ha): 100
- phytotoxicity rating ABUTH ([11]; 63 g ai/ha): 100
- phytotoxicity rating ABUTH ([11]; 250 g ai/ha): 100
- phytotoxicity rating DIGSA ([12]; 63 g ai/ha): 0
- phytotoxicity rating DIGSA ([12]; 250 g ai/ha): 40
- phytotoxicity rating SORHA ([13]; 63 g ai/ha): 0
- phytotoxicity rating SORHA ([13]; 250 g ai/ha): 20
- phytotoxicity rating ECHCG ([14]; 63 g ai/ha): 10
- phytotoxicity rating ECHCG ([14]; 250 g ai/ha): 60
- Pre-emerge Herbicidal Activity, phytotoxicity rating (0-100), CHEAL ([15]; 63 g ai/ha): 100
- Pre-emerge Herbicidal Activity, phytotoxicity rating (0-100), CHEAL ([15]; 250 g ai/ha): 100
- Pre-emerge Herbicidal Activity, phytotoxicity rating (0-100), SETVI ([16]; 63 g ai/ha): 100
- Pre-emerge Herbicidal Activity, phytotoxicity rating (0-100), SETVI ([16]; 250 g ai/ha): 100
- Pre-emerge Herbicidal Activity, phytotoxicity rating (0-100), CASOB ([17]; 63 g ai/ha): 100
- Pre-emerge Herbicidal Activity, phytotoxicity rating (0-100), CASOB ([17]; 250 g ai/ha): 100
- Pre-emerge Herbicidal Activity, phytotoxicity rating (0-100), IPOHE ([18]; 63 g ai/ha): 100
- Pre-emerge Herbicidal Activity, phytotoxicity rating (0-100), IPOHE ([18]; 250 g ai/ha): 100
- Pre-emerge Herbicidal Activity, phytotoxicity rating (0-100), ABUTH ([19]; 63 g ai/ha): 100
- Pre-emerge Herbicidal Activity, phytotoxicity rating (0-100), ABUTH ([19]; 250 g ai/ha): 100
- Pre-emerge Herbicidal Activity, phytotoxicity rating (0-100), DIGSA ([20]; 63 g ai/ha): 100
- Pre-emerge Herbicidal Activity, phytotoxicity rating (0-100), DIGSA ([20]; 250 g ai/ha): 100
- Pre-emerge Herbicidal Activity, phytotoxicity rating (0-100), SORHA ([21]; 63 g ai/ha): 60
- Pre-emerge Herbicidal Activity, phytotoxicity rating (0-100), SORHA ([21]; 250 g ai/ha): 90
- Pre-emerge Herbicidal Activity, phytotoxicity rating (0-100), ECHCG ([22]; 63 g ai/ha): 30
- Pre-emerge Herbicidal Activity, phytotoxicity rating (0-100), ECHCG ([22]; 250 g ai/ha): 95
- Pre-emerge Herbicidal Activity, phytotoxicity rating (0-100), AMARE ([23]; 63 g ai/ha): 100
- Pre-emerge Herbicidal Activity, phytotoxicity rating (0-100), AMARE ([23]; 250 g ai/ha): 100
